Columns and labels:
[1] = tested on: A549-ACE2 infected with SARS-CoV-2; assay: cell count relative to DMSO; higher = less toxic; conditions: 24 h
Calu-3 [2] = assay: drug sensitivity score (DSS) for viability; higher = more toxic; extreme values may be limits of the assay; conditions: 72 h
U2OS [3] = assay: as above; conditions: 72 h
HepG2 [4] = assay: as above; conditions: 72 h
Vero E6 [5] = assay: as above; conditions: 72 h
Caco-2 [6] = assay: as above; conditions: 72 h
A549-ACE2 = assay: drug-induced phospholipidosis relative to tamoxifen; higher = more phospholipidosis
Calu-3 [7] = assay: cell viability relative to DMSO; higher = less toxic; conditions: 72 h
U2OS [8] = assay: as above; conditions: 72 h
HepG2 [9] = assay: as above; conditions: 72 h
Vero E6 [10] = assay: as above; conditions: 72 h
Caco-2 [11] = assay: as above; conditions: 72 h
Calu-3 [12] = assay: relative viability EC50 (midpoint between 100% and the lowest measured viability); higher = less toxic; conditions: 72 h
U2OS [13] = assay: as above; conditions: 72 h
HepG2 [14] = assay: as above; conditions: 72 h
Vero E6 [15] = assay: as above; conditions: 72 h
Caco-2 [16] = assay: as above; conditions: 72 h
[17] = tested on: A549-ACE2 infected with SARS-CoV-2; assay: SARS-CoV-2 infection rate relative to DMSO; higher = more infection; conditions: 24 h
[18] = tested on: A549-ACE2 infected with SARS-CoV-2; assay: morphology score (similarity to uninfected cells); higher = more like uninfected cells; conditions: 24 h

c1cnc(N2CCN(Cc3ccc4c(c3)OCO4)CC2)nc1 [piribedil]
Conditions	SARS-CoV-2 infection rate, [17] [%]	cell count, [1] [%]	cell viability, Caco-2 [11] [%]	cell viability, Calu-3 [7] [%]	cell viability, HepG2 [9] [%]	cell viability, U2OS [8] [%]	cell viability, Vero E6 [10] [%]	morphology score, [18]
1 nM	–	–	106	110	98.9	104	100	–
10 nM	–	–	96.7	98	112	98.5	105	–
100 nM	–	–	95.8	99.3	98.9	103	100	–
0.3 µM	109	98	–	–	–	–	–	-0.23
1000 nM	–	–	92.9	89.5	107	98	98.1	–
3 µM	104	96	–	–	–	–	–	-0.1
10 µM	99	97	–	–	–	–	–	-0.05
10000 nM	–	–	90.3	102	102	99.9	94.4	–
30 µM	88	104	–	–	–	–	–	0.26

Conditions	drug sensitivity score	relative viability EC50 [nM]
Caco-2 [6]	0	–
Caco-2 [16]	–	> 10000
Calu-3 [2]	0	–
Calu-3 [12]	–	> 10000
HepG2 [4]	0	–
HepG2 [14]	–	> 10000
U2OS [3]	0	–
U2OS [13]	–	> 10000
Vero E6 [5]	0	–
Vero E6 [15]	–	> 10000

drug-induced phospholipidosis [%], A549-ACE2
Conditions	0.3 µM	0.833333 µM	3.33333 µM	6.66667 µM	10 µM	30 µM
24 h	0.73	-0.78	-1.88	-1.98	-0.73	4.07
48 h	1.04	-0.48	-0.16	0.15	0.48	5.06
72 h	3.05	-0.292	-0.287	2.2	1.92	7.77

COc1cc(/C=C/C(=O)CC(=O)/C=C/c2ccc(O)c(OC)c2)ccc1O [curcumin]
Conditions	SARS-CoV-2 infection rate, [17] [%]	cell count, [1] [%]	cell viability, Caco-2 [11] [%]	cell viability, Calu-3 [7] [%]	cell viability, HepG2 [9] [%]	cell viability, U2OS [8] [%]	cell viability, Vero E6 [10] [%]	morphology score, [18]
1 nM	–	–	97.6	99.9	104	99.8	99.9	–
10 nM	–	–	102	103	102	107	96.3	–
100 nM	–	–	97.9	102	98.2	95.5	95.2	–
0.3 µM	102	89	–	–	–	–	–	-0.12
1000 nM	–	–	89.7	108	101	99.2	98.2	–
3 µM	93	107	–	–	–	–	–	0.05
10 µM	99	99	–	–	–	–	–	0.27
10000 nM	–	–	45.6	80.6	55.7	30	82.9	–
30 µM	14	64	–	–	–	–	–	0.48

Conditions	drug sensitivity score	relative viability EC50 [nM]
Caco-2 [6]	4.6	–
Caco-2 [16]	–	1790
Calu-3 [2]	0.3	–
Calu-3 [12]	–	> 10000
HepG2 [4]	2.2	–
U2OS [3]	4	–
U2OS [13]	–	3080
Vero E6 [5]	0.6	–
Vero E6 [15]	–	> 10000

drug-induced phospholipidosis [%], A549-ACE2
Conditions	0.3 µM	0.833333 µM	3.33333 µM	6.66667 µM	10 µM	30 µM
24 h	1.25	2.99	3.97	17.5	28.2	105
48 h	3.07	1.47	2.2	8.78	11	–
72 h	3.47	0.682	1.8	7.67	8.59	–

CC(C)C[C@H](NC(=O)[C@H](CCc1ccccc1)NC(=O)CN1CCOCC1)C(=O)N[C@@H](Cc1ccccc1)C(=O)N[C@@H](CC(C)C)C(=O)[C@@]1(C)CO1 [carfilzomib]
Conditions	SARS-CoV-2 infection rate, [17] [%]	cell count, [1] [%]	cell viability, Caco-2 [11] [%]	cell viability, Calu-3 [7] [%]	cell viability, HepG2 [9] [%]	cell viability, U2OS [8] [%]	cell viability, Vero E6 [10] [%]	morphology score, [18]
1 nM	–	–	91.9	104	94.6	96	100	–
10 nM	–	–	50.8	91.2	68.8	76.7	97.6	–
0.1 µM	51	69	–	–	–	–	–	0.25
100 nM	–	–	8.6	5.8	9	0.4	55.4	–
0.3 µM	24	49	–	–	–	–	–	0.29
1 µM	22	34	–	–	–	–	–	0.25
1000 nM	–	–	4.4	4.3	-0.4	-0.5	5.3	–
3 µM	20	26	–	–	–	–	–	0.18
10000 nM	–	–	6	1.7	-0.3	-0.3	2.3	–

Conditions	drug sensitivity score	relative viability EC50 [nM]
Caco-2 [6]	34.7	–
Caco-2 [16]	–	9.3
Calu-3 [2]	30.9	–
Calu-3 [12]	–	26.7
HepG2 [4]	32.8	–
HepG2 [14]	–	18
U2OS [3]	34.1	–
U2OS [13]	–	16.1
Vero E6 [5]	22.6	–
Vero E6 [15]	–	112

Conditions	drug-induced phospholipidosis [%]
A549-ACE2, 0.3 µM, 24 h	-37.6

O=Nc1ccc(O)c2ncccc12 [NSC-3852]
Conditions	SARS-CoV-2 infection rate, [17] [%]	cell count, [1] [%]	cell viability, Caco-2 [11] [%]	cell viability, HepG2 [9] [%]	cell viability, U2OS [8] [%]	cell viability, Vero E6 [10] [%]	morphology score, [18]
1 nM	–	–	86.2	103	93.5	99.8	–
10 nM	–	–	101	89.6	99.5	102	–
100 nM	–	–	98.5	101	96.2	98.4	–
0.3 µM	106	97	–	–	–	–	-0.15
1000 nM	–	–	81.6	77.7	70.2	71.5	–
3 µM	96	76	–	–	–	–	-0.09
10 µM	48	63	–	–	–	–	0.41
10000 nM	–	–	9.2	33	7.2	30.1	–
30 µM	14	41	–	–	–	–	0.64

Conditions	drug sensitivity score	relative viability EC50 [nM]
Caco-2 [6]	8	–
Caco-2 [16]	–	1730
HepG2 [4]	6.9	–
HepG2 [14]	–	1320
U2OS [3]	9.3	–
U2OS [13]	–	1370
Vero E6 [5]	7.5	–
Vero E6 [15]	–	1180

drug-induced phospholipidosis [%], A549-ACE2
Conditions	0.3 µM	0.833333 µM	3.33333 µM	6.66667 µM	10 µM
24 h	0.34	-0.2	2.51	14.6	10.9
48 h	3.9	1.44	–	–	–
72 h	3.53	1.53	–	–	–

From the supplement of paper PMC13380429
